For five compounds, Activity and EC50 results are on record in ChEMBL document CHEMBL1149013, “Antitumor agents, 82. Cytotoxic sapogenols from Aesculus hippocastanum” (1986).

Structures are written as SMILES. In brackets after ≈: the same amount, converted by molar mass. Activity calls are given as the source filed them. No cut-off for these calls is given here.

In this experiment the test system is KB. In words: Cytotoxicity against human KB cells. Type of experiment: functional. The conditions noted are these: for EC50: read-out: ED50 (the source's name).

For `CC1(C)C[C@H]2C3=CC[C@@H]4[C@@]5(C)CC[C@H](O)C(C)(C)[C@@H]5CC[C@@]4(C)[C@]3(C)C[C@@H](O)[C@@]2(CO)[C@@H](O)[C@@H]1O`, the result was inactive.
Turning to `C/C=C(/C)C(=O)O[C@H]1[C@H](O)[C@]2(CO)[C@H](O)C[C@]3(C)C(=CC[C@@H]4[C@@]5(C)CC[C@H](O)C(C)(C)[C@@H]5CC[C@]43C)[C@@H]2CC1(C)C`, the EC50 is 3 µg/mL (≈ 5.24 µM).
Same read-out and setting: the value for `C/C=C(/C)C(=O)O[C@H]1[C@H](OC(=O)/C(C)=C/C)C(C)(C)C[C@H]2C3=CC[C@@H]4[C@@]5(C)CC[C@H](O)C(C)(C)[C@@H]5CC[C@@]4(C)[C@]3(C)[C@@H](O)[C@@H](O)[C@]21CO` [HIPPOCAESCULIN] was 3.6 µg/mL (≈ 5.37 µM); that for `CC1(C)OC[C@@]23[C@@H]4OC(C)(C)O[C@@H]4[C@]4(C)C(=CC[C@@H]5[C@@]6(C)CC[C@H](O)C(C)(C)[C@@H]6CC[C@]54C)[C@@H]2CC(C)(C)[C@@H](O)[C@@H]3O1` was 4 µg/mL (≈ 6.82 µM).
`CC1(C)C[C@H]2C3=CC[C@@H]4[C@@]5(C)CC[C@H](O)C(C)(C)[C@@H]5CC[C@@]4(C)[C@]3(C)[C@@H](O)[C@@H](O)[C@@]2(CO)[C@@H](O)[C@@H]1O`: the result was inactive.
